Test results published in US20230248762A1, “Method and composition for supporting normal blood calcium concentrations in mammals” (Contract Manufacturing Services, LLC, priority 2022, published 2023).

Legend:
blood calcium = conditions: oral 50 g calcium; cited from earlier work
[1] = test system: plasma calcium concentration; assay: Plasma calcium after calving, herds without anionic diet (Example 5); assay type: in vivo, multiparous cows
Source text: For examples 2 thru 5, statistical analysis consisted of repeated measures analysis of variance with cow nested within treatment and time after bolus administration as the repeated measure. Treatment plasma calcium means were compared at each time point using Tukey's test of comparison of means and differences are declared to be significant when the probability of the null hypothesis being correct is P<0.075.
In Example 5, multiparous cows were utilized from several small farms that were not utilizing an anionic diet to reduce the incidence of hypocalcemia in the cows. Within a few hours of calving, cows were administered one of four treatments. Six cows were not treated with any bolus after calving (No Bolus). Four cows were treated with intravenous calcium (10.5 g calcium in the form of calcium gluconate) after calving (IV Ca). Twenty-two cows received 2 boluses after calving that contained calcium salts and Solanum glaucophyllum leaf, supplying 78 g calcium and 1,25-dihydroxyvitamin D3 glycoside equivalent to 196 ug 1,25-dihydroxyvitamin D3 (Ca+SG Bolus). Twenty-four cows were treated at calving and again 12-24 hrs. later with commercial oral calcium salt boluses that supplied 40-44 g calcium each for a total calcium dose of 80-88 g, primarily from calcium chloride (Ca Bolus).

Compound: [Ca+2].[Cl-].[Cl-] [calcium chloride]
- calcium absorbed into the blood (blood calcium): about 4 g
- duration of increase of blood calcium (blood calcium): 6 to 8 h
- increase of blood calcium (blood calcium): approximately 1 mg/dl
- time to increase of blood calcium (blood calcium): ≤ 1 h

Compound: calcium gluconate [Ca IV]
- effect on calcium homeostasis mechanisms of the cow ([1]; 10.5 g calcium intravenous): inhibited the calcium homeostasis mechanisms
- plasma calcium concentration, rank among treatments ([1]; 24 to 84 hours after calving): lowest plasma calcium concentration
- hypocalcemia versus no treatment ([1]; days 2 and 3 following lactation): more hypocalcemia
- plasma calcium concentration, rank among treatments ([1]; four hours after calving): highest plasma calcium concentration
